Results reported in PubChem BioAssay AID2060618 (Molecular Pharmacology Branch, DTP, NCI, 2025).
Values joined by “and” are separate entries in the source; they are usually repeats but may differ in a detail not shown here. Equal values may be shown once.

System: 454973-116-R2-J3-PDC spheroids, percent test/control viability
Experiment: Anticancer human tumor 454973-116-R2-J3-PDC patient-derived pancreatic carcinoma cell line growth inhibition [CLK]
Conditions: spheroids with HUVEC and MSC; for viability, T/C: stronger effect = lower value; active = viability on the fitted dose curve at most 10% of control; inactive = the rest
Excerpt: A high-throughput screen of multi-cell type tumor spheroids was designed to identify active combinations of […] and targeted small molecules. Complex spheroids include a stromal component modeled by human endothelial cells (HUVEC) and fibroblasts modeled by human mesenchymal stem cells (MSCs). The concentration ranges selected for each drug and investigational agent were based upon clinically achievable concentrations if the clinical Cmax of the agent was known.
Compounds. The drugs and investigational agents: cirtuvivint (SM08502; NSC835563), CC-671 (NSC850746), vemurafenib (NSC761431), tapotoclax (NSC804041), sotorasib (NSC818433), adagrasib (NSC831453), MRTX-1133 (NSC836407), BAY2416964 (NSC825713), copanlisib (NSC816437), inavolisib (NSC800729), abemaciclib (NSC768073), osimertinib (NSC779217), entinostat (NSC756642), eltanexor (KPT-8602, NSC794443), venetoclax (NSC766270), ceralasertib (NSC777638), bortezomib (NSC756655), olaparib (NSC753686), talazoparib (NSC767125), alisertib (NSC759677), peposertib (NSC802822), gemcitabine (NSC613327), 5-fluorouracil (NSC19893), SN-38 (NSC673596), oxaliplatin (NSC266046), paclitaxel (NSC125973), and doxorubicin (NSC123127), were obtained from the National Cancer Institute (NCI) Developmental Therapeutics Program Chemical Repository. The FDA-approved anticancer drug set is available from the Developmental Therapeutics Program at https://dtp.cancer.gov/organization/dscb/obtaining/available plates.htm. […] The stock solutions were prepared in dimethyl sulfoxide (DMSO, Sigma-Aldrich, St. Louis, MO, cat. D2650), except for the platinum complexes which were prepared in saline (Quality Biological, Gaithersburg, MD, cat. 114-055-101), at 800-fold the tested concentration and stored at -70 degrees C prior to their use. All drugs and investigational agents were tested over a range starting from a high concentration at or near the clinical Cmax and decreasing in half-log increments. If the clinical Cmax for an agent had not been determined, the highest concentration tested was 10 microM.
Cell Culture. All cells were maintained in an incubator at 37 degrees C and 5% CO2 with 95% humidity. The PDC lines were cultured according to standard operating procedures established by the NCI PDMR. Briefly, all PDCs were thawed and cultured in Matrigel-coated flasks prepared with a working solution of 1X Ham's F-12 nutrient mix, without supplementation (Invitrogen, Waltham, MA, cat. 11765054), 100 U/mL penicillin-streptomycin (Invitrogen, cat. 15140122), and 2.5% Matrigel (Corning Inc., Corning, NY, cat. 354248) for the first three passages. The 947758-054-R-J2-PDC line was cultured in 6B/Colon 1A media, which includes advanced DMEM/F-12 (Thermo Fisher Scientific, cat. 12634028), 10 mM HEPES (Thermo Fisher Scientific, cat. 15630080), 1X GlutaMAX supplement (Thermo Fisher Scientific, cat. 35050061), 0.1 mg/mL primocin (InvivoGen, cat. ant-pm-2), 10% defined fetal bovine serum, heat inactivated (HyClone Laboratories Inc., cat. SH30070.03HI), 1.25 mM N-Acetyl-L-cysteine (Sigma-Aldrich, cat. A9165), 10 mM nicotinamide (Sigma-Aldrich, cat. N0636), 1X B-27 supplement (Thermo Fisher Scientific, cat. 17504044), 1X N-2 supplement (Thermo Fisher Scientific, cat. 17502048), and 10 microM Y-27632 dihydrochloride (Tocris Bioscience, cat. 1254). The 876862-298-R-J1-PDC was cultured in 6E media, which includes all 6B/Colon 1A media components plus 50% L-WRN conditioned media (ATCC, cat. CRL-3276), 50 ng/mL recombinant human EGF recombinant protein (hEGF; Thermo Fisher Scientific, cat. PHG0311), 10 ng/mL recombinant human fibroblast growth factor 10 (hGFG-10; PeproTech, cat. 100-26), 1 ng/mL recombinant human fibroblast growth factor 2 (hFGF-2; PeproTech, cat. 100-18B), and 1 µM prostaglandin E2 (PGE2; Tocris, cat. 2296). The 227483-062-R1-J1-PDC line was cultured in Panc media, containing all 6E components except hFGF-2, with the addition of 500 nM SB-431542 (Selleckchem, cat. S1067) and 10 nM gastrin (Tocris, cat. 3006). […]

[1] = curve of first compound, second compound 0.0316 µM
[2] = curve of first compound, second compound 0.1 µM
[3] = curve of first compound, second compound 0.316 µM
[4] = curve of first compound, second compound 1 µM
[5] = curve of first compound, second compound 3.16 µM
[6] = curve of first compound, second compound 10 µM
[7] = second compound 0.0316 µM, first compound 0.0316 µM
[8] = second compound 0.0316 µM, first compound 0.1 µM
[9] = second compound 0.0316 µM, first compound 0.316 µM
[10] = second compound 0.0316 µM, first compound 1 µM
[11] = second compound 0.0316 µM, first compound 3.16 µM
[12] = second compound 0.0316 µM, first compound 10 µM
[13] = second compound 0.1 µM, first compound 0.0316 µM
[14] = second compound 0.1 µM, first compound 0.1 µM
[15] = second compound 0.1 µM, first compound 0.316 µM
[16] = second compound 0.1 µM, first compound 1 µM
[17] = second compound 0.1 µM, first compound 3.16 µM
[18] = second compound 0.1 µM, first compound 10 µM
[19] = second compound 0.316 µM, first compound 0.0316 µM
[20] = second compound 0.316 µM, first compound 0.1 µM
[21] = second compound 0.316 µM, first compound 0.316 µM
[22] = second compound 0.316 µM, first compound 1 µM
[23] = second compound 0.316 µM, first compound 3.16 µM
[24] = second compound 0.316 µM, first compound 10 µM
[25] = second compound 1 µM, first compound 0.0316 µM
[26] = second compound 1 µM, first compound 0.1 µM
[27] = second compound 1 µM, first compound 0.316 µM
[28] = second compound 1 µM, first compound 1 µM
[29] = second compound 1 µM, first compound 3.16 µM
[30] = second compound 1 µM, first compound 10 µM
[31] = second compound 3.16 µM, first compound 0.0316 µM
[32] = second compound 3.16 µM, first compound 0.1 µM
[33] = second compound 3.16 µM, first compound 0.316 µM
[34] = second compound 3.16 µM, first compound 1 µM
[35] = second compound 3.16 µM, first compound 3.16 µM
[36] = second compound 3.16 µM, first compound 10 µM
[37] = second compound 10 µM, first compound 0.0316 µM
[38] = second compound 10 µM, first compound 0.1 µM
[39] = second compound 10 µM, first compound 0.316 µM
[40] = second compound 10 µM, first compound 1 µM
[41] = second compound 10 µM, first compound 3.16 µM
[42] = second compound 10 µM, first compound 10 µM
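Note: spheroids exposed to compounds for 7 days before readout.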

CN1CCN(c2cc(C(=O)Nc3cc4cc(-c5cnn(C)c5)ccc4cn3)ccn2)CC1
inactive: viability, T/C (compound 0.0316 µM) 102% [middle of 12 runs] | viability, T/C (compound 0.1 µM) 81.8% [middle of 12 runs]
active: viability, T/C (compound 0.316 µM) 2.31% [middle of 11 runs] | viability, T/C (compound 1 µM) 0.41% [middle of 10 runs] | viability, T/C (compound 3.16 µM) 0.23% [middle of 9 runs] | viability, T/C (compound 10 µM) 0.25% [middle of 10 runs]
159 nM [middle of 9 runs]: IC50 (compound alone, run of 09/18/2023)

COc1cccc2c1C(=O)c1c(O)c3c(c(O)c1C2=O)CC(O)(C(=O)CO)CC3OC1CC(N)C(O)C(C)O1 (stereo not drawn)
active: viability, T/C (compound 1 µM) 6.76% and 3.88% | viability, T/C (compound 3.16 µM) 0.39% and 1.8% | viability, T/C (compound 10 µM) 2.07% and 3.53%
inactive: viability, T/C (compound 0.0316 µM) 58.7% and 49.7% | viability, T/C (compound 0.1 µM) 23% and 19.8% | viability, T/C (compound 0.316 µM) 21.2% and 19.8%
42.3 nM and < 31.6 nM: IC50 (curve of compound)

Nc1ccn(C2OC(CO)C(O)C2(F)F)c(=O)n1 (stereo not drawn) + CNC(=O)c1ccc(Nc2nc(OC3CCCC3)c3c(-c4ccc5nc(C)oc5c4)c[nH]c3n2)c(OC)c1
inactive: viability, T/C [7] 10.8% | viability, T/C [13] 9.97% | viability, T/C [14] 8.66% | viability, T/C [15] 10.6% | viability, T/C [16] 9.85% | viability, T/C [17] 11.6% | viability, T/C [18] 10.8% | viability, T/C [19] 11.5% | viability, T/C [20] 10.7% | viability, T/C [21] 11.8% | viability, T/C [22] 10.4% | viability, T/C [23] 10.3% | viability, T/C [24] 8.88% | viability, T/C [25] 11.7% | viability, T/C [31] 11.8% | viability, T/C [37] 13%
active: viability, T/C [8] 9.2% | viability, T/C [9] 11.1% | viability, T/C [10] 7.75% | viability, T/C [11] 7.61% | viability, T/C [12] 8.18% | viability, T/C [26] 6.57% | viability, T/C [27] 7.9% | viability, T/C [28] 9.2% | viability, T/C [29] 7.06% | viability, T/C [30] 8.15% | viability, T/C [32] 6.57% | viability, T/C [33] 7.14% | viability, T/C [34] 9.4% | viability, T/C [35] 7.28% | viability, T/C [36] 7.11% | viability, T/C [38] 8.08% | viability, T/C [39] 4.66% | viability, T/C [40] 6.23% | viability, T/C [41] 9.5% | viability, T/C [42] 8.08%
< 31.6 nM: IC50 [1] | IC50 [2] | IC50 [3] | IC50 [4] | IC50 [5] | IC50 [6]

C=C(F)C(=O)N1CCN(c2nc(OCC3CCCN3C)nc3c2CCN(c2cccc4cccc(Cl)c24)C3)CC1CC#N (stereo not drawn) + CNC(=O)c1ccc(Nc2nc(OC3CCCC3)c3c(-c4ccc5nc(C)oc5c4)c[nH]c3n2)c(OC)c1
active: viability, T/C [12] 1.38% | viability, T/C [18] 0.85% | viability, T/C [24] 0.19% | viability, T/C [42] 0.25%
5840 nM: IC50 [1]
4820 nM: IC50 [2]
inactive: viability, T/C [7] 111% | viability, T/C [8] 114% | viability, T/C [9] 109% | viability, T/C [10] 109% | viability, T/C [11] 106% | viability, T/C [13] 96.9% | viability, T/C [14] 85% | viability, T/C [15] 75.7% | viability, T/C [16] 89.8% | viability, T/C [17] 78.3% | viability, T/C [19] 39.6% | viability, T/C [20] 36.1% | viability, T/C [21] 38.2% | viability, T/C [22] 37.2% | viability, T/C [23] 39.5% | viability, T/C [25] 35.2% | viability, T/C [26] 27.1% | viability, T/C [27] 30.4% | viability, T/C [28] 36.5% | viability, T/C [29] 31.1% | viability, T/C [30] 0.5% | viability, T/C [31] 29.8% | viability, T/C [32] 27.9% | viability, T/C [33] 28.5% | viability, T/C [34] 34.6% | viability, T/C [35] 27.2% | viability, T/C [36] 0.29% | viability, T/C [37] 28.2% | viability, T/C [38] 24.4% | viability, T/C [39] 26.5% | viability, T/C [40] 25.3% | viability, T/C [41] 19.2%
< 31.6 nM: IC50 [3] | IC50 [4] | IC50 [5] | IC50 [6]
